# Reference: patent US20230398124A1, “SEVEN-MEMBERED RING COMPOUNDS AND METHOD OF USE THEREOF” (Invea Therapeutics, Inc., priority 2022, published 2023)
# “Also recorded” adds a separate entry of the source.
# Assays:
# [1] = tested on: Mdr2 knock out (Mdr2 KO) mice; assay: liver staining in Mdr2 KO mice: collagen deposition (Fast Green/Sirius Red), hydroxyproline, F4/80, Desmin; type: in vivo, mouse; conditions: for portal tract F4/80 immunoreactivity (macrophage marker) / expression of desmin levels (cholangiocyte activation marker): vs untreated Mdr2 KO; for collagen deposition: Fast Green/Sirius Red staining
# Experimental: Mdr2 knock out (Mdr2 KO) mice are a genetic mouse model of PSC and display similar phenotypes to human PSC. Collagen content, ductular reaction and inflammation are elevated in Mdr2 knock out mice. Mdr2 KO mice also have enhanced mast cell (MC) presence. Total bile acid (TBA) content increases in Mdr2 knock out mice. Accumulation of chymase and tryptase positive mast cells (MC) in the liver was evaluated by immunohistochemistry. Metabolic parameters such as Total Bile Acids (serum and liver), Ductular Reaction (CK-19), Hepatic Fibrosis (Fast Green Sirius Red staining), Collagen deposition, Hydroxyproline levels, Fibrotic Gene Markers, cholangiocyte Activation (Desmin), inflammation and mast cell products, (F4/80, which is a macrophage marker) and Senescence and SASP markers (TGF-β1, p21, p16) are measured to determine the effect of compound 1 in mouse model of hepatobiliary disease.
# (§1) Animal: 10-12 weeks old Mdr2 homozygous knockout (Mdr2 KO) mice were raised on FVB/NJ background. All mice were maintained in a temperature-controlled environment (20° C. to 22° C.) with 12:12-hour light/dark cycles and fed standard chow with access to drinking water ad libitum.
# Fibrosis in liver was evaluated by quantitatively estimating collagen deposition with Fast green and Sirius red staining of formalin fixed paraffin-embedded liver sections ([…]). Hepatic fibrosis and collagen deposition is evaluated by quantitative Fast Green/Sirius Red staining. Macrophage accumulation was determined by staining for F4/80 antibody. (See FIG. 4) Cholangiocyte activation was analyzed by immunofluorescence for Desmin (See FIG. 5) and CK19 (marker for cholangiocytes). (See FIG. 9)
# [2] = tested on: DSS-induced colitis C57Bl/6N mice; assay: DSS-induced colitis mouse model (body weight loss, occult blood, stool consistency, DAI); type: in vivo; conditions: for DAI score: 20 mg/kg i.p. QD day 3 to 9, 0-4 scale, DSS vehicle 3 and above; for body weight loss (score) / occult blood score / rectal bleeding / stool consistency score / diarrhea: i.p. QD day 3 to 9, Compound 1 20 mg/kg, anti-TNF 15 mg/kg, observed 0-10 days
# Experimental: Animal: For the DSS-induced acute model of experimental colitis, 8-week-old C57Bl/6N mice (weight between 17 and 20 grams, all females from Charles River Laboratories) were used. All mice were maintained in a temperature-controlled environment (20° C.±4° C.) with 12:12-hour light/dark cycles, relative humidity was maintained at 55%±10%, ventilation with 8-10 air changes per hour and fed standard chow with access to drinking water ad libitum.
# Mice were treated with one oral cycles of 2.5% DSS (weight/volume) (DSS, molecular mass, 40 kDa; MP Biomedicals), characterized by 7 days of DSS exposure in drinking water, followed by 3 days of regular drinking water.
# Administration of drugs: 3 days after starting DSS administration, mice were treated with testing drugs up to day 9, according to the experimental groups and the dose regimen described in table below. 0.5% (w/v) Hydroxypropyl cellulose was used as the vehicle.
# From day 0 to 7, the animals received DSS in drinking water and the drugs were administered from day 3 to 9. Body weight and clinical observations such as diarrhea and bleeding from rectum were recorded daily post colitis induction until day 10.
# Disease activity Index (DAI) and body weight loss were measured. Colitis severity was calculated using a disease activity index (DAI) score based on daily evaluation of body weight, stool consistency, and presence of blood in the stools, as determined using Hemoccult SENSA Cards (Beckman Coulter).
# Grading of intestinal inflammation was determined according to the criteria proposed by Cooper et al (Cooper H S et al., Clinicopathologic study of dextran sulfate sodium experimental murine colitis. Lab Invest. 1993 August; 69(2):238-49, the DAI has been determined by scoring changes in variety of factors such as weight loss, stool consistency, and occult bleeding. The weight loss score ranges from 0 to 4, where zero signals no weight loss, score of 1 indicates the presence of 1-5% weight loss, a score of 2 signals the presence of 5-10% weight loss, a score of 3 signals the presence of 10-20% weight loss and a score of 4 represents greater than 20% weight loss. Likewise, the stool consistency score ranges from 0 to 4 with a score of zero representing normal stools, a score of 2 represents loose stools and a score of 4 represents diarrhea. The rectal bleeding is observed by scores ranging from 0 to 4, where a score of zero represents normal or no significant bleeding, a score of 2 indicates the presence of occult bleeding and a score of 4 indicates the presence of gross bleeding. A 5-point (0-4) DAI was obtained by calculating an average of body weight score, stool consistency and rectal bleeding.
# [3] = tested on: Mdr2 knock out (Mdr2 KO) mice; conditions: 20 mg/kg i.p., vs untreated Mdr2 KO
# Experimental: Mdr2 knock out (Mdr2 KO) mice are a genetic mouse model of PSC and display similar phenotypes to human PSC. Collagen content, ductular reaction and inflammation are elevated in Mdr2 knock out mice. Mdr2 KO mice also have enhanced mast cell (MC) presence. Total bile acid (TBA) content increases in Mdr2 knock out mice. Accumulation of chymase and tryptase positive mast cells (MC) in the liver was evaluated by immunohistochemistry.
# as §1
# [4] = tested on: Mdr2 knock out (Mdr2 KO) mice; assay: liver and serum total bile acid accumulation in Mdr2 KO mice, colorimetric assay; type: in vivo, mouse; conditions: 20 mg/kg i.p.
# Experimental: as §1
# Liver and serum bile acid accumulation was evaluated by using a colorimetric assay from Crystal Chem Inc (cat #80471). For Liver, total bile acid (TBA) was extracted from homogenized liver. For serum, (TBAs) were measured in serum by enzyme immunoassay (EIA). 3-alpha-hydroxysteroid dehydrogenase and Nicotinamide adenine dinucleotide (NAD) converted TBA into 3-keto steroids and NADH. The NADH reacts with nitroblue tetrazolium (NBT) to form a dye and this is measured at 540 nm absorbance.
# [5] = tested on: Mdr2 knock out (Mdr2 KO) mice; assay: quantitative real time PCR of mast cell, pro-fibrotic and biliary senescence markers in liver of Mdr2 KO mice; type: in vivo, mouse; conditions: for Timp2 expression (pro-fibrotic marker): Mdr2 KO = 3.41885191, p<0.0001
# Experimental: as §1
# Liver inflammation, fibrosis and biliary senescence was evaluated in liver sections by quantitative real time PCR for mast cell markers such as Mcpt1, Fcer1a, Tpsb2 (See FIG. 3) and pro-fibrotic markers such as Col1a1, Timp2 and Tgfb1, (See FIG. 8)_biliary senescence markers such as Cdkn2a, Cdkn2c, Tgfb1 & Gl1bl. (See FIG. 10). Liver tissue was lysed, and total RNA was isolated using trizol and fold change was calculated using ΔΔCt method.
smiles,measurement,setting,value
"CCC[C@@H](NC(=O)N1C/C(=N/OCC)NC[C@H](Cc2cc(Cl)ccc2OC)C1=O)c1ccc(C(=O)O)c(N)c1 [Compound 1, 2-amino-4-[(1R)-1-({[(3Z,6S)-6-(5-chloro-2-methoxybenzyl)-3-(ethoxyimino)-7-oxo-1,4-diazepan-1-yl]carbonyl}amino)butyl]benzoic acid]",portal tract F4/80 immunoreactivity (macrophage marker),[1]; 20 mg/kg i.p.,reduces
same,expression of desmin levels (cholangiocyte activation marker),[1],reduction
same,colon length reduction,[2]; 20 mg/kg i.p. QD day 3 to 9,significantly inhibits
same,DAI score,[2]; 20 mg/kg,significantly attenuated
same,DAI score,"[2]; listed as compound 1, 20 mg/kg",< 2
same,body weight loss (score),[2],significantly attenuated
same,occult blood score / rectal bleeding,[2],significantly attenuated
same,stool consistency score / diarrhea,[2],significantly attenuated
"CCC[C@@H](NC(=O)N1C/C(=N/OCC)NC[C@H](Cc2cc(Cl)ccc2OC)C1=O)c1ccc(C(=O)O)c(N)c1 [Compound 1 monoacetic acid solvate, 2-amino-4-[(1R)-1-({[(3Z,6S)-6-(5-chloro-2-methoxybenzyl)-3-(ethoxyimino)-7-oxo-1,4-diazepan-1-yl]carbonyl}amino)butyl]benzoic acid monoacetic acid solvate]",level of inflammatory marker Tpbs2,[3],significantly reduced
same,level of inflammatory marker mMCP1,[3],significantly reduced
same,Liver total bile acid content,"[4]; Mdr2 KO vehicle = 3.498252, p<0.0001",1.797 µM
same,serum bile acid content,"[4]; Mdr2 KO vehicle = 62.04502, p<0.0001",26.24 µM
same,Tgfb1 expression (pro-fibrotic marker),"[5]; 10 mg/kg i.p., Mdr2 KO = 1.72254177, p=0.0138",1.133 fold change
same,Fcer1 expression (mast cell marker),"[5]; 10 mg/kg i.p., Mdr2 KO = 2.20989385, p=0.0058",1.532 fold change
same,Tpsb2 expression (mast cell marker),"[5]; 10 mg/kg i.p., Mdr2 KO = 2.21107066, p=0.8750",1.53 fold change
same,Mcpt1 expression (mast cell marker),"[5]; 10 mg/kg i.p., Mdr2 KO = 2.33385383, p=0.0237",0.8094 fold change
same,Col1a1 expression (pro-fibrotic marker),"[5]; 10 mg/kg i.p., Mdr2 KO = 3.28243911, p=0.0005",1.509 fold change
same,Timp2 expression (pro-fibrotic marker),[5]; 10 mg/kg i.p.,1.539 fold change
same,Tgfb1 expression (pro-fibrotic marker),"[5]; 20 mg/kg i.p., Mdr2 KO = 1.72254177, p=0.0018",0.8986 fold change
same,Fcer1 expression (mast cell marker),"[5]; 20 mg/kg i.p., Mdr2 KO = 2.20989385, p<0.0001",0.8866 fold change
same,Tpsb2 expression (mast cell marker),"[5]; 20 mg/kg i.p., Mdr2 KO = 2.21107066, p=0.7774",1.341 fold change
same,Mcpt1 expression (mast cell marker),"[5]; 20 mg/kg i.p., Mdr2 KO = 2.33385383, p=0.0178",0.723 fold change
same,Col1a1 expression (pro-fibrotic marker),"[5]; 20 mg/kg i.p., Mdr2 KO = 3.28243911, p<0.0001",0.9248 fold change
same,Timp2 expression (pro-fibrotic marker),[5]; 20 mg/kg i.p.,0.9494 fold change
same,Tgfb1 expression (senescence marker),"[5]; 20 mg/kg i.p., Mdr2 KO = 4.188847, p=0.0002",1.821 fold change
same,Glb1l expression (senescence marker),"[5]; 20 mg/kg i.p., Mdr2 KO = 13.02486, p=0.0001",3.319 fold change
same,Cdkn2c expression (senescence marker),"[5]; 20 mg/kg i.p., Mdr2 KO = 16.05029, p=0.0050",12.66 fold change
same,Cdkn2a expression (senescence marker),"[5]; 20 mg/kg i.p., Mdr2 KO = 21.49752, p<0.0001",3.739 fold change
same,hydroxyproline accumulation,"[1]; 10 mg/kg i.p., Mdr2 KO = 4.871969, p=0.6426",4.219
same,hydroxyproline accumulation,"[1]; 20 mg/kg i.p., Mdr2 KO = 4.871969, p=0.0078",2.972
same,portal tract F4/80 immunoreactivity (macrophage marker),[1]; 20 mg/kg i.p.,decrease
same,collagen deposition,[1],restricted
same,collagen deposition,[1]; listed as compound 1 monoacetic acid solvate,decrease
same,expression of desmin levels (cholangiocyte activation marker),[1],decrease
same,DAI score,[2],decrease
same,body weight loss (score),[2],reduction in the body weight loss; also recorded: decrease
same,occult blood score / rectal bleeding,[2],reduction in bleeding; also recorded: decrease
same,stool consistency score / diarrhea,[2],reduction in diarrhea; also recorded: decrease
